pIC50: −log10 of the molar value.
target: ACL (Homo sapiens (Human), UniProt P53396); test: ADP-Glo Assay; settings: not given
Sequence (P53396 other isoform, or with tags, fused parts or gaps isoform P53396-2): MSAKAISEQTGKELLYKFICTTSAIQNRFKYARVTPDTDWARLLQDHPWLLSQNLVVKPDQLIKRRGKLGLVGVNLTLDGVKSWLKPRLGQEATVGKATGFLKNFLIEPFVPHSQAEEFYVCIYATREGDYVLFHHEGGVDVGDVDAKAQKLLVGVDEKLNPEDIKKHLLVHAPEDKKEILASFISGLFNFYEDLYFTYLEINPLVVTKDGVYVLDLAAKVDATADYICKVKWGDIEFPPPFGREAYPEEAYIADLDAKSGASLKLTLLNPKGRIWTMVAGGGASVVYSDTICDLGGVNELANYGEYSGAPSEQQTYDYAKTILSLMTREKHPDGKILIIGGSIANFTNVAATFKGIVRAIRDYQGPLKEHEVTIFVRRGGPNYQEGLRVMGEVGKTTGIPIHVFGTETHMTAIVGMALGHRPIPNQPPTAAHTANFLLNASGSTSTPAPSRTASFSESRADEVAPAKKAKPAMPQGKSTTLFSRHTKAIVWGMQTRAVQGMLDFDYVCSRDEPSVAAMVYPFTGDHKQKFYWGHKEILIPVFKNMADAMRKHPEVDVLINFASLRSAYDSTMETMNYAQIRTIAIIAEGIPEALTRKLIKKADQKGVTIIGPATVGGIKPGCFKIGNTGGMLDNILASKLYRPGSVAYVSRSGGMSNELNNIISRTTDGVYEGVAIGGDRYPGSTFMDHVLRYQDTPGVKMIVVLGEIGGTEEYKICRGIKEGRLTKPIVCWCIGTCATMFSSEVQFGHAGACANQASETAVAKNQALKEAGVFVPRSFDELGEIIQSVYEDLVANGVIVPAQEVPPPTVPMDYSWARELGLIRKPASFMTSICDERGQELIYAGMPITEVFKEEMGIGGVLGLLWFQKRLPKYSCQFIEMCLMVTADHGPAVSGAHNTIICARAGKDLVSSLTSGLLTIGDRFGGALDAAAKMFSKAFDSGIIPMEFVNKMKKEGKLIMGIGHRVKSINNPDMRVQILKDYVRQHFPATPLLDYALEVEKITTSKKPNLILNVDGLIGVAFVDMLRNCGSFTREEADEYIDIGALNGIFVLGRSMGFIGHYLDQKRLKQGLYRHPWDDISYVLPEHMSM

| pIC50 | Structure (SMILES) |
| --- | --- |
| 4.70 to 6.30 | O=C(O)COc1c(Cl)cc(C(=O)N2CCC2)cc1S(=O)(=O)Nc1cc(-c2ccccc2)c(F)cc1F [I-199, 2-[4-(azetidine-1-carbonyl)-2-chloro-6-([4,6-difluoro-[1,1-biphenyl]-3-yl]sulfamoyl)phenoxy]acetic Acid] |
| 4.70 to 6.30 | O=S(=O)(Nc1cc(-c2ccccc2)c(F)cc1F)c1cc(Cl)cc(C(F)(F)F)c1 [I-204, 3-chloro-N-[4,6-difluoro-[1,1-biphenyl]-3-yl]-5-(trifluoromethyl)benzene-1-sulfonamide] |
| 4.70 to 6.30 | O=C(c1cc(Cl)c(O)c(SCc2cc(-c3ccccc3)c(F)cc2F)c1)N1CCCC1 [I-205, (3-chloro-5-(((4,6-difluoro-[1,1′-biphenyl]-3-yl)methyl)thio)-4-hydroxyphenyl)(pyrrolidin-1-yl)methanone] |
| 4.70 to 6.30 | O=S(=O)(Nc1cc(-c2ccccc2)ccc1F)c1cc(Cl)cc(Cl)c1F [I-207, 3,5-dichloro-2-fluoro-N-[4-fluoro-[1,1-biphenyl]-3-yl]benzene-1-sulfonamide] |
| 4.70 to 6.30 | CC(C)(C)C(=O)Oc1c(Cl)cc(C(=O)N2CCC2)cc1S(=O)(=O)Nc1cc(-c2ccccc2)c(F)cc1F [I-210, 4-(azetidine-1-carbonyl)-2-chloro-6-(N-(4,6-difluoro-[1,1′-biphenyl]-3-yl)sulfamoyl)phenyl Pivalate] |
| 4.70 to 6.30 | CC(C)(C)OC(=O)COc1ccc(-c2ccccc2)cc1NS(=O)(=O)c1cc(Cl)cc(Cl)c1O [I-214, tert-butyl 2-[[3-(3,5-dichloro-2-hydroxybenzenesulfonamido)-[1,1-biphenyl]-4-yl]oxy]acetate] |
| 4.70 to 6.30 | O=C(c1cc(Cl)c(O)c(NS(=O)(=O)c2cc(-c3ccccc3)ccc2F)c1)N1CCC1 [I-215, N-[5-(azetidine-1-carbonyl)-3-chloro-2-hydroxyphenyl]-4-fluoro-[1,1-biphenyl]-3-sulfonamide] |
| 4.70 to 6.30 | O=C(Nc1cc(C(=O)N2CCC2)cc(Cl)c1O)c1cc(-c2ccccc2)ccc1F [I-216, N-(5-(azetidine-1-carbonyl)-3-chloro-2-hydroxyphenyl)-4-fluoro-[1,1′-biphenyl]-3-carboxamide] |
| 4.70 to 6.30 | O=C(Oc1c(Cl)cc(C(=O)N2CCC2)cc1S(=O)(=O)N(C(=O)C1CC1)c1cc(-c2ccccc2)c(F)cc1F)C1CC1 [I-217, 4-(azetidine-1-carbonyl)-2-chloro-6-[(1-cyclopropyl-N-[4,6-difluoro-[1,1-biphenyl]-3-yl]formamido)sulfonyl]phenylcyclopropanecarboxylate] |
| 4.70 to 6.30 | N#Cc1cc(Cl)cc(S(=O)(=O)Nc2cc(-c3ccccc3)ccc2O)c1 [I-218, 3-chloro-5-cyano-N-[4-hydroxy-[1,1-biphenyl]-3-yl]benzene-1-sulfonamide] |
| 4.70 to 6.30 | O=S(=O)(Nc1ccc(F)cc1F)c1cc(Cl)cc(Cl)c1O [I-219, 3,5-dichloro-N-(2,4-difluorophenyl)-2-hydroxybenzene-1-sulfonamide] |
| 4.70 to 6.30 | O=S(=O)(Nc1cc(-c2ccccc2)ccc1F)c1cc(Cl)cc2ccoc12 [I-223, 5-chloro-N-[4-fluoro-[1,1-biphenyl]-3-yl]-1-benzofuran-7-sulfonamide] |
| 4.70 to 6.30 | O=S(=O)(Nc1cc(-c2ccccc2)ccc1O)c1cc(Cl)cc(Cl)c1 [I-224, 3,5-dichloro-N-(4-hydroxy-[1,1′-biphenyl]-3-yl)benzenesulfonamide] |
| 4.70 to 6.30 | O=C(O)c1ccc(-c2ccccc2)cc1NS(=O)(=O)c1ccccc1 [I-225, 3-(phenylsulfonamido)-[1,1′-biphenyl]-4-carboxylic Acid] |
| 4.70 to 6.30 | O=C(O)c1ccc(-c2ccccc2)cc1NS(=O)(=O)c1cc(Cl)cc(C(=O)N2CCC2)c1 [I-227, 3-((3-(azetidine-1-carbonyl)-5-chlorophenyl)sulfonamido)-[1,1′-biphenyl]-4-carboxylic Acid] |
| 4.70 to 6.30 | O=S(=O)(Nc1cc(-c2ccccc2)c(F)cc1F)c1ccccc1O [I-230, N-[4,6-difluoro-[1,1-biphenyl]-3-yl]-2-hydroxybenzene-1-sulfonamide] |
| 4.70 to 6.30 | CN(C)C(=O)c1cc(Cl)c(O)c(S(=O)(=O)Nc2cc(C3CC3)c(F)cc2F)c1 [I-231, 3-chloro-5-(N-(5-cyclopropyl-2,4-difluorophenyl)sulfamoyl)-4-hydroxy-N,N-dimethylbenzamide] |
| 4.70 to 6.30 | O=C(O)c1ccc(-c2ccccc2)cc1NS(=O)(=O)c1cc(Cl)cc(-c2nccs2)c1 [I-234, 3-((3-chloro-5-(thiazol-2-yl)phenyl)sulfonamido)-[1,1′-biphenyl]-4-carboxylic Acid] |
| 4.70 to 6.30 | O=C(O)COc1ccc(-c2ccccc2)cc1NS(=O)(=O)c1cc(F)cc(Cl)c1 [I-238, 2-((3-((3-chloro-5-fluorophenyl)sulfonamido)-[1,1′-biphenyl]-4-yl)oxy)acetic Acid] |
| 4.70 to 6.30 | O=C(O)COc1ccc(-c2ccccc2)cc1NS(=O)(=O)c1cc(Cl)cc(Cl)c1 [I-244, 2-[[3-(3,5-dichlorobenzenesulfonamido)-[1,1-biphenyl]-4-yl]oxy]acetic Acid] |
| 4.70 to 6.30 | NC(=O)Cc1ccc(-c2ccccc2)cc1NS(=O)(=O)c1cc(Cl)cc(Cl)c1 [I-245, 2-(3-((3,5-dichlorophenyl)sulfonamido)-[1,1′-biphenyl]-4-yl)acetamide] |
| 4.70 to 6.30 | O=S(=O)(Nc1cc(-c2ccccc2)c(F)cc1F)c1cc(Cl)cc(Br)c1 [I-246, 3-bromo-5-chloro-N-(4,6-difluoro-[1,1′-biphenyl]-3-yl)benzenesulfonamide] |

| pIC50 | Structure (SMILES) |
| --- | --- |
| 4.70 to 6.30 | O=C(O)c1ccc(-c2ccccc2)cc1NS(=O)(=O)c1cncc(Cl)c1 [I-247, 3-((5-chloropyridine)-3-sulfonamido)-[1,1′-biphenyl]-4-carboxylic Acid] |
| 4.70 to 6.30 | COC(=O)c1ncccc1S(=O)(=O)Nc1cc(-c2ccccc2)ccc1F [I-250] |
| 4.70 to 6.30 | N#Cc1cc(S(=O)(=O)Nc2cc(-c3ccccc3)ccc2F)ccc1Cl [I-251] |
| 4.70 to 6.30 | O=S(=O)(Nc1cc(-c2ccccc2)ccc1F)c1ccc(Cl)c(-c2nnn[nH]2)c1 [I-252] |
| 4.70 to 6.30 | O=c1[nH]c2cc(F)c(S(=O)(=O)Nc3cc(-c4ccccc4)ccc3F)cc2o1 [I-253] |
| 4.70 to 6.30 | CCS(=O)(=O)Nc1cc(OC)ccc1S(=O)(=O)Nc1cc(-c2ccccc2)ccc1F [I-254] |
| 4.70 to 6.30 | O=C1COc2cc(S(=O)(=O)Nc3cc(-c4ccccc4)ccc3F)c(Cl)cc2N1 [I-255] |
| 4.70 to 6.30 | O=C(O)c1cc(Cl)c(Cl)c(S(=O)(=O)Nc2cc(-c3ccccc3)ccc2F)c1 [I-256] |
| 4.70 to 6.30 | O=C(O)c1ccc(-c2ccccc2)cc1NS(=O)(=O)Cc1ccccc1 [I-257] |
| 4.70 to 6.30 | O=C(O)c1ccc(-c2ccccc2)cc1NS(=O)(=O)c1ccc2[nH]c(=O)[nH]c2c1 [I-258] |
| 4.70 to 6.30 | O=C(O)c1ccc(-c2ccccc2)cc1NS(=O)(=O)CCc1ccccc1 [I-259] |
| 4.70 to 6.30 | COc1ccc(-c2ccccc2)cc1NS(=O)(=O)c1cc(Cl)cc(Cl)c1NS(C)(=O)=O [I-263, 3,5-dichloro-2-methanesulfonamido-N-[4-methoxy-[1,1-biphenyl]-3-yl]benzene-1-sulfonamide] |
| 4.70 to 6.30 | CC(C)(C)OC(=O)COc1ccc(-c2ccccc2)cc1NS(=O)(=O)c1cc(C(F)(F)F)cc(Cl)c1O [I-265, tert-butyl 2-([3-[3-chloro-2-hydroxy-5-(trifluoromethyl)benzenesulfonamido]-[1,1-biphenyl]-4-yl]oxy)acetate] |
| 4.70 to 6.30 | O=C(O)c1ccc(-c2ccccc2)cc1NCc1cc(Cl)cc(Cl)c1 [I-267, 3-((3,5-dichlorobenzyl)amino)-[1,1′-biphenyl]-4-carboxylic Acid] |
| 4.70 to 6.30 | O=C(c1cc(Cl)c(O)c(S(=O)(=O)Nc2ccccc2F)c1)N1CCC1 [I-268, 5-(azetidine-1-carbonyl)-3-chloro-N-(2-fluorophenyl)-2-hydroxybenzene-1-sulfonamide] |
| 4.70 to 6.30 | O=C(O)COc1ccc(-c2ccccc2)cc1NS(=O)(=O)c1cc(C(=O)N2CCC2)cc(Cl)c1O [I-270, 2-([3-[5-(azetidine-1-carbonyl)-3-chloro-2-hydroxybenzenesulfonamido]-[1,1-biphenyl]-4-yl]oxy)acetic Acid] |
| 4.70 to 6.30 | CN(C)C(=O)c1cc(Cl)c(O)c(S(=O)(=O)Nc2cc(-c3ccccc3)ccc2C(=O)O)c1 [I-271, 3-((3-chloro-5-(dimethylcarbamoyl)-2-hydroxyphenyl)sulfonamido)-[1,1′-biphenyl]-4-carboxylic Acid] |
| 4.70 to 6.30 | O=C(O)c1ccc(-c2ccccc2)cc1NS(=O)(=O)c1cccc(Cl)c1 [I-273, 3-((3-chlorophenyl)sulfonamido)-[1,1′-biphenyl]-4-carboxylic acid] |
| 4.70 to 6.30 | O=C(O)c1ccc(-c2ccccc2)cc1NS(=O)(=O)CC1CCCC1 [I-274] |
| 4.70 to 6.30 | COc1ccc(-c2ccccc2)cc1NS(=O)(=O)c1cc(C(=O)N2CCNCC2)cc(Cl)c1O [I-277, 3-chloro-2-hydroxy-N-[4-methoxy-[1,1-biphenyl]-3-yl]-5-(piperazine-1-carbonyl)benzene-1-sulfonamide] |
| 4.70 to 6.30 | O=C(O)c1cc(-c2ccccc2)ccc1NS(=O)(=O)c1cc(Cl)cc(Cl)c1 [I-278, 4-((3,5-dichlorophenyl)sulfonamido)-[1,1′-biphenyl]-3-carboxylic acid] |
| 4.70 to 6.30 | CC(=O)N1CCCN(c2ccc(-c3ccccc3)cc2NS(=O)(=O)c2cc(Cl)cc(Cl)c2O)CC1 [I-279, N-[4-(4-acetyl-1,4-diazepan-1-yl)-[1,1-biphenyl]-3-yl]-3,5-dichloro-2-hydroxybenzene-1-sulfonamide] |

| Structure (SMILES) | pIC50 |
| --- | --- |
| CN(C)C(=O)Oc1c(Cl)cc(C(=O)N2CCC2)cc1S(=O)(=O)Nc1cc(-c2ccccc2)c(F)cc1F [I-209, 4-(azetidine-1-carbonyl)-2-chloro-6-([4,6-difluoro-[1,1-biphenyl]-3-yl]sulfamoyl)phenyl N,N-dimethylcarbamate] | 4.70 to 6.30 |

same assay, conditions: read-out: ACL-ADP-Glo (IC50); 3 nM ACL, 15 μM ATP, 3 μM CoA, 300 μM Citrate

| Structure (SMILES) | pIC50 |
| --- | --- |
| O=C(O)Cc1ccc(-c2ccccc2)cc1NS(=O)(=O)c1cc(Cl)cc(Cl)c1 [I-228, 2-(3-((3,5-dichlorophenyl)sulfonamido)-[1,1′-biphenyl]-4-yl)acetic Acid] | 4.70 to 6.30 |
| O=C(c1cc(Cl)c(O)c(S(=O)(=O)Nc2cc(-c3ccccc3)ccn2)c1)N1CCC1 [I-237] | 4.70 to 6.30 |
